Experimental data from patent US7767789B2, “Truncated proteins as cancer markers” (University Hopitals of Cleveland, priority 2005, dated 2010).
“Also recorded” adds a separate entry of the source.

Assays:
Type in all cases: cell-based, human
CaSki cells [1] = assay: DNA solubilization assay (apoptosis)
Description: Twenty-four hours before the end of the experiment, cells were labeled with [^3H]thymidine (specific activity, 93 Ci/mmol; 5 μCi/1×10^6 cells) for 16 h. The medium was removed, and cells were washed three times with fresh medium lacking [^3H]thymidine and were incubated in the same medium for an additional 6 h. At the end of incubation, the supernatant was stored, and cells were lysed in 0.5 ml lysis buffer (10 mM Tris-HCl, pH 7.5; plus 1 mM EDTA-0.2% Triton X-100) for 1 h at 4° C. The intact chromatin was separated from the fragmented DNA by 5 min centrifugation at 4° C. in Eppendorf microcentrifuge at 12,000×g. The supernatant (lysate) was stored, while the pellet was resuspended in 0.5 ml of 1% sodium dodecyl sulfate (SDS). The radioactivity contained in the supernatants, lysates; and pellets was counted in a scintillation counter, and DNA fragmentation was calculated as: [% Solubilized DNA]=([cpm supernatant+cpm lysates]/[cpm supernatant+cpm lysate+cpm pellet])×100.

CaSki cells [2] = assay: Number of CaSki cells in culture; conditions: serum-free; 0.2 nM EGF, 2 nM epinephrine, or both, 24 h
Description: Near-confluent cultures of CaSki cells on filters were shifted for 14 hours to serum-free medium supplemented with 1% BSA and were treated in the same medium with 0.2 nM EGF, 2 nM epinephrine, or both for an additional 24 h. At the completion of treatments, cells were harvested off the filters and counted.

CaSki cells [3] = assay: DNA synthesis by [3H]thymidine incorporation; conditions: 0.2 nM EGF, 2 nM epinephrine
Description: The experiments used CaSki cells, a line of transformed cervical epithelial cells that were obtained from the ATCC (Manassas, Va.) and were previously characterized as stably expressing phenotypic characteristics of human cervical epithelial cells. Cells were grown and subcultured in RPMI-1640 supplemented with 8% fetal calf serum, 0.2% NaHCO3, nonessential amino acids (0.1 mM), L-glutamine (2 mM), penicillin (100 U/ml), streptomycin (100 μg/ml), and gentamycin ([…]) at 37° C. in a […] humidified incubator. Cultures were routinely tested for mycoplasma. Preliminary experiments were conducted on cells plated on culture plates, and definitive experiments were repeated on cells plated on filters. Filters were either Anocell (Anocell-10, Oxon, UK, obtained through Sigma Chemicals, St. Louis, Mo.), Transwell (Costar Corporation, Cambridge, Mass.), or Millicell-CM (Millipore, Bedford, Mass.). Filters were coated on their upper (luminal) surface with 3-5 μg/cm collagen type IV and incubated at 37° C. overnight. […] DNA synthesis DNA synthesis was measured by [^3H]thymidine incorporation. […] The radioactivity [dpm/mg protein, determined by Bio-Rad (Hercules, Calif.) Protein Assay solution] of triplicated samples was determined by scintillation counting (LS1801 scintillation counter; Beckman, Fullerton, Calif.).

In the case of “EGF: Human recombinant EGF, epidermal growth factor”, the “effect on TNFα-induced increase in DNA solubilization” value (CaSki cells [1]; pretreatment 24 h: 1 μM zinterol or 0.2 nM EGF) is reported as “no significant effect”, the “effect on BzATP-induced apoptosis (DNA solubilization)” value (CaSki cells [1]; pretreatment: EGF 0.2 nM, zinterol/terbutaline 1 μM 24 h, forskolin 10 μM 14 h with IBMX, isoproterenol 10 μM, phenylephrine 100 μM) is reported as “little effect; also recorded: no significant effect” and the “number of cells in culture” value (CaSki cells [2]) is reported as “increased the number of cells in culture”. For the same substance, the “[3H]thymidine incorporation” value (CaSki cells [3]) was “increased [^3H]thymidine incorporation”.
